Measured values published in ChEMBL document CHEMBL3792320, “Synthesis, biological evaluation and molecular docking studies of 2-amino-3,4,5-trimethoxyaroylindole derivatives as novel anticancer agents” (2016).
The source made the active and inactive calls. The rule behind the calls is not given here.

Columns and labels:
Format in all cases: functional
MCF7 [1] = test: Cytotoxicity against human MCF7 cells assessed as reduction in cell growth after 48 hrs by SRB assay
HT-29 = test: Cytotoxicity against human HT-29 cells assessed as reduction in cell growth after 48 hrs by SRB assay
MCF7 [2] = test: Cytotoxicity against human MCF7 cells assessed as reduction in cell viability after 72 hrs by MTS assay; details: MCF7, 72 h

Work on `COC(=O)c1[nH]c2ccccc2c1C(=O)c1cc(OC)c(OC)c(OC)c1N` yielded a GI50 (MCF7 [1]; MCF7, 48 h) of 193 nM and a GI50 (HT-29; HT-29, 48 h) of 2380 nM.

Compound `COc1ccc2c(Cc3cc(OC)c(OC)c(OC)c3N)c[nH]c2c1` has a GI50 (MCF7 [1]; MCF7, 48 h) of 1830 nM and a GI50 (HT-29; HT-29, 48 h) of 74800 nM.

With `COc1cc(C(=O)c2c[nH]c3ccc(C)cc23)c(N)c(OC)c1OC` the GI50 (MCF7 [1]; MCF7, 48 h) was 12400 nM and the GI50 (HT-29; HT-29, 48 h) was > 100000 nM.

`COc1cc(C(=O)c2c[nH]c3ccc(Cl)cc23)c(N)c(OC)c1OC` showed a GI50 (MCF7 [1]; MCF7, 48 h) of 321 nM and a GI50 (HT-29; HT-29, 48 h) of 4850 nM.

With `COc1cc(C(=O)c2c[nH]c3cc(F)ccc23)c(N)c(OC)c1OC` the GI50 (MCF7 [1]; MCF7, 48 h) was 42800 nM and the GI50 (HT-29; HT-29, 48 h) was 64200 nM.

For `COc1cc(Cc2c[nH]c3ccc(Cl)cc23)c(N)c(OC)c1OC`, the GI50 (MCF7 [1]) was “inactive” and the GI50 (HT-29) was “inactive”.

In the case of `COc1cc(C(=O)c2c[nH]c3cccc(OC)c23)c(N)c(OC)c1OC`, the GI50 (MCF7 [1]; MCF7, 48 h) is reported as > 100000 nM and the GI50 (HT-29; HT-29, 48 h) is reported as > 100000 nM.

`COc1cc(C(=O)c2c[nH]c3c(OC)cccc23)c(N)c(OC)c1OC` showed a GI50 (MCF7 [1]; MCF7, 48 h) of 9960 nM and a GI50 (HT-29; HT-29, 48 h) of 48600 nM.

Work on `COc1ccc2c(C(=O)c3cc(OC)c(OC)c(OC)c3N)c[nH]c2c1` yielded a GI50 (MCF7 [1]; MCF7, 48 h) of 13 nM and a GI50 (HT-29; HT-29, 48 h) of 143 nM.

`COc1ccc(/C=C\c2cc(OC)c(OC)c(OC)c2)cc1O` [COMBRETASTATIN A4] was tested, and the GI50 (MCF7 [1]; MCF7, 48 h) was 25 nM and the GI50 (HT-29; HT-29, 48 h) was 260 nM.

For `COc1cc(Cc2c[nH]c3ccc(Br)cc23)c(N)c(OC)c1OC`, the GI50 (MCF7 [1]) was “inactive” and the GI50 (HT-29) was “inactive”.

In the case of `COc1cc(Cc2c[nH]c3cccc(OC)c23)c(N)c(OC)c1OC`, the GI50 (MCF7 [1]) is reported as “inactive” and the GI50 (HT-29) is reported as “inactive”.

For `CCOC(=O)c1[nH]c2ccc(Cl)cc2c1C(=O)c1cc(OC)c(OC)c(OC)c1N`, the GI50 (MCF7 [1]; MCF7, 48 h) was 590 nM and the GI50 (HT-29; HT-29, 48 h) was 6840 nM.

For `CCOC(=O)c1[nH]c2ccccc2c1C(=O)c1cc(OC)c(OC)c(OC)c1N`, the GI50 (MCF7 [1]; MCF7, 48 h) was 480 nM and the GI50 (HT-29; HT-29, 48 h) was 5630 nM.

`CCOC(=O)c1[nH]c2ccc(OC)cc2c1C(=O)c1cc(OC)c(OC)c(OC)c1N` was tested, and the GI50 (MCF7 [1]; MCF7, 48 h) was 540 nM and the GI50 (HT-29; HT-29, 48 h) was 5150 nM.

Compound `COC(=O)c1[nH]c2ccc(OC)cc2c1C(=O)c1cc(OC)c(OC)c(OC)c1N` has a GI50 (MCF7 [1]; MCF7, 48 h) of 102 nM and a GI50 (HT-29; HT-29, 48 h) of 1240 nM.

For `COc1ccc2[nH]cc(C(=O)c3cc(OC)c(OC)c(OC)c3N)c2c1`, the GI50 (MCF7 [1]; MCF7, 48 h) was 528 nM and the GI50 (HT-29; HT-29, 48 h) was 950 nM.

`COc1cc(C(=O)c2c[nH]c3ccccc23)c(N)c(OC)c1OC` showed a GI50 (MCF7 [1]; MCF7, 48 h) of 900 nM and a GI50 (HT-29; HT-29, 48 h) of 9800 nM.

For `COc1cc(Cc2c[nH]c3ccccc23)c(N)c(OC)c1OC`, the GI50 (MCF7 [1]; MCF7, 48 h) was 45000 nM and the GI50 (HT-29; HT-29, 48 h) was > 100000 nM.

With `COc1cc(Cc2c[nH]c3c(OC)cccc23)c(N)c(OC)c1OC` the GI50 (MCF7 [1]) was “inactive” and the GI50 (HT-29) was “inactive”.

`COc1cc2[nH]cc(C(=O)c3cc(OC)c(OC)c(OC)c3N)c2cc1OC` gave a GI50 (MCF7 [1]; MCF7, 48 h) of 38400 nM and a GI50 (HT-29; HT-29, 48 h) of 24400 nM.

Compound `COC(=O)c1[nH]c2ccc(Br)cc2c1C(=O)c1cc(OC)c(OC)c(OC)c1N` has a GI50 (MCF7 [1]; MCF7, 48 h) of 124 nM and a GI50 (HT-29; HT-29, 48 h) of 1940 nM.

`COc1cc(C(=O)c2c[nH]c3ccc(Br)cc23)c(N)c(OC)c1OC` showed a GI50 (MCF7 [1]; MCF7, 48 h) of 360 nM and a GI50 (HT-29; HT-29, 48 h) of 3830 nM.

For `COc1cc(Cc2c[nH]c3ccc(C)cc23)c(N)c(OC)c1OC`, the GI50 (MCF7 [1]) was “inactive” and the GI50 (HT-29) was “inactive”.

In the case of `COc1ccc2[nH]cc(Cc3cc(OC)c(OC)c(OC)c3N)c2c1`, the GI50 (MCF7 [1]; MCF7, 48 h) is reported as 32800 nM and the GI50 (HT-29; HT-29, 48 h) is reported as > 100000 nM.

With `COc1cc2[nH]cc(Cc3cc(OC)c(OC)c(OC)c3N)c2cc1OC` the GI50 (MCF7 [1]) was “inactive” and the GI50 (HT-29) was “inactive”.

Work on `COc1ccc2c(C(=O)c3cc(OC)c(OC)c(OC)c3)c[nH]c2c1` yielded a GI50 (MCF7 [2]) of 7 nM.

With `COC(=O)c1[nH]c2ccc(Cl)cc2c1C(=O)c1cc(OC)c(OC)c(OC)c1N` the GI50 (MCF7 [1]; MCF7, 48 h) was 171 nM and the GI50 (HT-29; HT-29, 48 h) was 2140 nM.

For `COc1cc(Cc2c[nH]c3cc(F)ccc23)c(N)c(OC)c1OC`, the GI50 (MCF7 [1]) was “inactive” and the GI50 (HT-29) was “inactive”.

For `CCOC(=O)c1[nH]c2ccc(Br)cc2c1C(=O)c1cc(OC)c(OC)c(OC)c1N`, the GI50 (MCF7 [1]; MCF7, 48 h) was 425 nM and the GI50 (HT-29; HT-29, 48 h) was 5380 nM.
